Laboratory results published in the NIST ThermoML archive (doi:10.1016/j.jct.2010.03.002).
± gives the expanded uncertainty stated by the source.

Tests used:
[1] = 101 kPa, Liquid; for viscosity: Capillary tube (Ostwald / Ubbelohde) method; for mass density: Vibrating tube method
[2] = xn = mol fraction of the nth substance listed; settings: 101 kPa, Liquid, x1 = 1; for viscosity: Capillary tube (Ostwald / Ubbelohde) method; for mass density: Vibrating tube method

| SMILES | viscosity ([1]; 293.15 K) | mass density ([1]; 293.15 K) | viscosity ([1]; 303.15 K) | mass density ([1]; 303.15 K) | viscosity ([1]; 313.15 K) | mass density ([1]; 313.15 K) | viscosity ([1]; 323.15 K) | mass density ([1]; 323.15 K) | viscosity ([1]; 333.15 K) | mass density ([1]; 333.15 K) | viscosity ([2]; 293.15 K) | viscosity ([2]; 303.15 K) | viscosity ([2]; 313.15 K) | viscosity ([2]; 323.15 K) | mass density ([2]; 323.15 K) | viscosity ([2]; 333.15 K) | mass density ([2]; 333.15 K) |
| --- | --- | --- | --- | --- | --- | --- | --- | --- | --- | --- | --- | --- | --- | --- | --- | --- | --- |
| CCCCCCn1cc[n+](C)c1.[Br-] [3-hexyl-1-methyl-1H-imidazolium bromide] | 6936 ± 750 mPa·s | 1227.4 ± 1.7 kg/m3 | 2239 ± 200 mPa·s | 1220.1 ± 1.7 kg/m3 | 851.65 ± 56 mPa·s | 1213.3 ± 1.7 kg/m3 | 512.14 ± 27 mPa·s | 1205.7 ± 1.7 kg/m3 | 350.69 ± 16 mPa·s | 1198.6 ± 1.6 kg/m3 | – | – | – | – | – | – | – |
| O [water] | 1.304 ± 0.012 mPa·s | – | 1.002 ± 0.01 mPa·s | – | 0.653 ± 0.007 mPa·s | – | 0.544 ± 0.005 mPa·s | 988 ± 0.1 kg/m3 | 0.467 ± 0.005 mPa·s | 983.2 ± 0.1 kg/m3 | – | – | – | – | – | – | – |
| O [water] + CCCCCCn1cc[n+](C)c1.[Br-] | – | – | – | – | – | – | – | – | – | – | 1.304 ± 0.012 mPa·s | 1.002 ± 0.01 mPa·s | 0.653 ± 0.007 mPa·s | 0.544 ± 0.005 mPa·s | 988 ± 0.1 kg/m3 | 0.467 ± 0.005 mPa·s | 983.2 ± 0.1 kg/m3 |
